According to PMC7501296, “Rapid and direct control of target protein levels with VHL-recruiting dTAG molecules” (Nature Communications, 2020):
Where “and” joins values, the source holds several entries; their conditions need not be identical. Equal entries are not always repeated.

Tests used:
Assay type in all cases: cell-based
[1] = test system: PATU-8902 LACZ-FKBP12^F36V clone; test: Antiproliferation, PATU-8902 LACZ-FKBP12F36V clone, 2D-monolayer (CellTiter-Glo)
Method: (§1) Cell viability was assayed in 2D-adherent or ultra-low adherent 3D-spheroids using CellTiter-Glo (Promega)[6],[15]. Luminescence was measured on an Envision 2104 plate reader (PerkinElmer) and Fluostar Omega Reader (BMG Labtech) and data was analyzed using GraphPad PRISM v8. Synergy assessments were performed using CellTiter-Glo (Promega) with the following modifications to the protocol described in the ref. [34]. In brief, EWS502 cells were plated at 1000 cells per well in 50 µL of appropriate media in 384-well white culture plates (Corning) allowed to adhere overnight, and 100 nL of compounds were added using a Janus Workstation pin tool (PerkinElmer) for 72 h. Cell viability was measured by addition of 10 µL of CellTiter-glo (Promega), followed by incubation for 15 minutes at room temperature. Luminescence was measured on an Envision 2104 plate reader (PerkinElmer) and data was analyzed using GraphPad PRISM v8.

[2] = test system: PATU-8902 FKBP12^F36V-KRAS^G12V; KRAS^-/- clone; test: Antiproliferation, PATU-8902 FKBP12F36V-KRASG12V; KRAS-/- clone, 2D-monolayer (CellTiter-Glo)
Method: as §1

[3] = test system: PATU-8902 LACZ-FKBP12^F36V clone; test: Antiproliferation, PATU-8902 LACZ-FKBP12F36V clone, 3D-spheroid (CellTiter-Glo)
Method: as §1

[4] = test system: PATU-8902 FKBP12^F36V-KRAS^G12V; KRAS^-/- clone; test: Antiproliferation, PATU-8902 FKBP12F36V-KRASG12V; KRAS-/- clone, 3D-spheroid (CellTiter-Glo); settings: FKBP12F36V-KRASG12V, KRAS-/-, 3D-spheroid, replicate values
Method: as §1

FKBP12^WT-Nluc = target: T1, FKBP12^WT-Nluc (Homo sapiens, UniProt P62942); test: FKBP12WT-Nluc dual luciferase assay (293FT); settings: 293FT FKBP12WT-Nluc, 24 h
T1 construct: expressed in transfected cells; host or cells: 293FT
Method: (§2) Dual luciferase assays were performed using 293FT FKBP12^WT-Nluc and FKBP12^F36V-Nluc cells. In brief, cells were plated at 2000 cells per well in 20 µL of appropriate media in 384-well white culture plates (Corning), allowed to adhere overnight, and 100 nL of compounds were added using a Janus Workstation pin tool (PerkinElmer) for 24 h at 37 °C. To evaluate Fluc signal, plates were brought to room temperature, 20 µL of Dual-Glo Reagent (Promega) was added for 10 min and luminescence was measured on an Envision 2104 plate reader (PerkinElmer). Subsequently, 20 µL of Dual-Glo Stop & Glo Reagent (Promega) was added for 10 min and luminescence was again measured to capture Nluc signal. DMSO-normalized ratios of Nluc/Fluc signal was analyzed and plotted using GraphPad PRISM v8[6].

FKBP12^F36V-Nluc = target: T2, FKBP12^F36V-Nluc (Homo sapiens, UniProt P62942, F37V); test: FKBP12F36V-Nluc dual luciferase assay (293FT); settings: 293FT FKBP12F36V-Nluc, 24 h
T2 construct: expressed in transfected cells; host or cells: 293FT
Method: as §2

[5] = log10[compound] (M) -5.69897, replicate values
[6] = log10[compound] (M) -6.19897, replicate values
[7] = log10[compound] (M) -6.69897, replicate values
[8] = log10[compound] (M) -7.19897, replicate values
[9] = log10[compound] (M) -7.69897, replicate values
[10] = log10[compound] (M) -8.19897, replicate values
[11] = log10[compound] (M) -8.69897, replicate values
[12] = log10[compound] (M) -9.19897, replicate values
[13] = log10[compound] (M) -9.69897, replicate values
[14] = log10[compound] (M) -10.199, replicate values
[15] = log10[compound] (M) -5.30103, single replicates
[16] = log10[compound] (M) -5.80103, single replicates
[17] = log10[compound] (M) -6.30103, single replicates
[18] = log10[compound] (M) -6.80103, single replicates
[19] = log10[compound] (M) -7.30103, single replicates
[20] = log10[compound] (M) -7.80103, single replicates
[21] = log10[compound] (M) -8.30103, single replicates
[22] = log10[compound] (M) -8.80103, single replicates
[23] = log10[compound] (M) -9.30103, single replicates
[24] = log10[compound] (M) -9.80103, single replicates

T2 sequence (P62942 2-108 F37V limits assumed): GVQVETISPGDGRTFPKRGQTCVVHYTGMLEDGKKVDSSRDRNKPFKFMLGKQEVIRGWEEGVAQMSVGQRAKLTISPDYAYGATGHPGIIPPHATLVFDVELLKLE
T1 sequence (P62942 2-108 limits assumed): as the sequence (P62942 2-108 F37V limits assumed) above, with V36F counted along it

CC[C@H](C(=O)N1CCCC[C@H]1C(=O)O[C@H](CCc1ccc(OC)c(OC)c1)c1ccccc1OCC(=O)NCCCCCCCCNc1ccc2c(c1)C(=O)N(C1CCC(=O)NC1=O)C2=O)c1cc(OC)c(OC)c(OC)c1 (stereo partly drawn) [dTAG-47]
DMSO-normalized antiproliferation [1, 5]: 66.3552 and 78.983 and 129.177 and 83.2821
DMSO-normalized antiproliferation [1, 6]: 96.6043 and 136.336 and 78.4431 and 113.952
DMSO-normalized antiproliferation [1, 7]: 106.502 and 122.166 and 122.162 and 152.939
DMSO-normalized antiproliferation [1, 8]: 97.4699 and 137.606 and 129.786 and 96.3913
DMSO-normalized antiproliferation [1, 9]: 105.363 and 127.754 and 134.499 and 162.317
DMSO-normalized antiproliferation [1, 10]: 108.061 and 166.691 and 180.246 and 124.553
DMSO-normalized antiproliferation [1, 11]: 122.542 and 158.966 and 101.253 and 156.902
DMSO-normalized antiproliferation [1, 12]: 124.955 and 178.332 and 114.428 and 108.403
DMSO-normalized antiproliferation [1, 13]: 90.3511 and 110.898 and 123.983 and 115.732
DMSO-normalized antiproliferation [1, 14]: 132.189 and 174.913 and 122.829 and 145.695
DMSO-normalized antiproliferation [2, 5]: 6.913 and 6.748 and 7.162 and 6.575
DMSO-normalized antiproliferation [2, 6]: 6.887 and 6.816 and 9.161 and 7.924
DMSO-normalized antiproliferation [2, 7]: 8.541 and 7.72 and 7.186 and 7.798
DMSO-normalized antiproliferation [2, 8]: 7.406 and 10.8399 and 10.8629 and 7.675
DMSO-normalized antiproliferation [2, 9]: 12.7188 and 13.025 and 10.8965 and 13.2658
DMSO-normalized antiproliferation [2, 10]: 32.6374 and 45.5784 and 27.329 and 36.3182
DMSO-normalized antiproliferation [2, 11]: 78.991 and 62.9303 and 95.6226 and 83.1029
DMSO-normalized antiproliferation [2, 12]: 131.499 and 101.289 and 106.245 and 113.716
DMSO-normalized antiproliferation [2, 13]: 70.9753 and 109.585 and 109.74 and 110.516
DMSO-normalized antiproliferation [2, 14]: 108.82 and 120.301 and 99.0114 and 87.8166
DMSO-normalized antiproliferation [3, 5]: 89.4983 and 102.295 and 92.5832 and 113.039
DMSO-normalized antiproliferation [3, 6]: 114.787 and 91.3098 and 99.5825 and 107.277
DMSO-normalized antiproliferation [3, 7]: 113.465 and 134.808 and 116.567 and 121.226
DMSO-normalized antiproliferation [3, 8]: 129.284 and 117.496 and 141.381 and 115.953
DMSO-normalized antiproliferation [3, 9]: 103.38 and 130.979 and 121.849 and 101.748
DMSO-normalized antiproliferation [3, 10]: 127.652 and 127.302 and 105.649 and 114.859
DMSO-normalized antiproliferation [3, 11]: 124.033 and 144.628 and 127.266 and 105.313
DMSO-normalized antiproliferation [3, 12]: 110.895 and 108.017 and 114.025 and 143
DMSO-normalized antiproliferation [3, 13]: 107.098 and 111.016 and 108.066 and 105.932
DMSO-normalized antiproliferation [3, 14]: 102.188 and 109.313 and 104.448 and 106.317
DMSO-normalized antiproliferation ([4]; log10[compound] (M) -5.69897): 10.0402 and 10.6917 and 15.8593 and 10.4467
DMSO-normalized antiproliferation ([4]; log10[compound] (M) -6.19897): 11.3488 and 8.236 and 4.984 and 9.032
DMSO-normalized antiproliferation ([4]; log10[compound] (M) -6.69897): 14.7066 and 10.4355 and 16.0487 and 8.1023
DMSO-normalized antiproliferation ([4]; log10[compound] (M) -7.19897): 11.6773 and 15.954 and 8.269 and 8.1914
DMSO-normalized antiproliferation ([4]; log10[compound] (M) -7.69897): 15.915 and 11.6328 and 15.6143 and 14.7735
DMSO-normalized antiproliferation ([4]; log10[compound] (M) -8.19897): 17.2515 and 18.6047 and 14.0328 and 13.4092
DMSO-normalized antiproliferation ([4]; log10[compound] (M) -8.69897): 38.6293 and 28.3831 and 27.3251 and 20.0636
DMSO-normalized antiproliferation ([4]; log10[compound] (M) -9.19897): 80.9673 and 68.7721 and 60.1519 and 83.6347
DMSO-normalized antiproliferation ([4]; log10[compound] (M) -9.69897): 92.188 and 73.717 and 97.9125 and 91.7258
DMSO-normalized antiproliferation ([4]; log10[compound] (M) -10.199): 111.244 and 86.8032 and 100.63 and 85.0157
DMSO-normalized ratio of Nluc/Fluc signal (FKBP12^WT-Nluc; [15]): 84.1355 and 61.3325 and 70.7772 and 69.8836
DMSO-normalized ratio of Nluc/Fluc signal (FKBP12^WT-Nluc; [16]): 93.0264 and 83.3041 and 88.6237 and 105.071
DMSO-normalized ratio of Nluc/Fluc signal (FKBP12^WT-Nluc; [17]): 94.1663 and 90.3102 and 81.5579 and 90.5666
DMSO-normalized ratio of Nluc/Fluc signal (FKBP12^WT-Nluc; [18]): 110.721 and 121.213 and 82.3107 and 91.0391
DMSO-normalized ratio of Nluc/Fluc signal (FKBP12^WT-Nluc; [19]): 107.713 and 93.6392 and 128.788 and 92.5578
DMSO-normalized ratio of Nluc/Fluc signal (FKBP12^WT-Nluc; [20]): 103.034 and 105.226 and 82.6165 and 80.9641
DMSO-normalized ratio of Nluc/Fluc signal (FKBP12^WT-Nluc; [21]): 109.495 and 103.137 and 100.817 and 113.935
DMSO-normalized ratio of Nluc/Fluc signal (FKBP12^WT-Nluc; [22]): 108.489 and 81.746 and 104.598 and 105.548
DMSO-normalized ratio of Nluc/Fluc signal (FKBP12^WT-Nluc; [23]): 150.295 and 133.521 and 111.306 and 119.516
DMSO-normalized ratio of Nluc/Fluc signal (FKBP12^WT-Nluc; [24]): 91.0985 and 100.837 and 94.8437 and 78.0176
DMSO-normalized ratio of Nluc/Fluc signal (FKBP12^F36V-Nluc; [15]): 9.718 and 7.82 and 6.838 and 6.452
DMSO-normalized ratio of Nluc/Fluc signal (FKBP12^F36V-Nluc; [16]): 7.4356 and 7.1545 and 9.246 and 9.013
DMSO-normalized ratio of Nluc/Fluc signal (FKBP12^F36V-Nluc; [17]): 8.136 and 6.155 and 6.261 and 6.581
DMSO-normalized ratio of Nluc/Fluc signal (FKBP12^F36V-Nluc; [18]): 5.707 and 7.548 and 7.612 and 6.01
DMSO-normalized ratio of Nluc/Fluc signal (FKBP12^F36V-Nluc; [19]): 6.03 and 9.875 and 9.62 and 12.7928
DMSO-normalized ratio of Nluc/Fluc signal (FKBP12^F36V-Nluc; [20]): 18.7955 and 27.4949 and 18.2618 and 15.8294
DMSO-normalized ratio of Nluc/Fluc signal (FKBP12^F36V-Nluc; [21]): 42.6816 and 38.7415 and 32.3273 and 32.9688
DMSO-normalized ratio of Nluc/Fluc signal (FKBP12^F36V-Nluc; [22]): 36.5732 and 37.1776 and 61.6483 and 62.7104
DMSO-normalized ratio of Nluc/Fluc signal (FKBP12^F36V-Nluc; [23]): 80.6958 and 88.3567 and 73.7011 and 76.297
DMSO-normalized ratio of Nluc/Fluc signal (FKBP12^F36V-Nluc; [24]): 75.9613 and 95.4034 and 80.0547 and 73.0727
